Patent US20210371784A1, “CELL-CONTAINING VESSEL AND METHOD FOR PRODUCING NEURAL CELL-CONTAINING SPHEROID” (RICOH COMPANY, LTD., priority 2020, published 2021)

System: spheroids of human iPSC-derived neurons and human iPSC-derived astrocytes
Experiment: Calcium transient assay of neural cell-containing spheroids in the presence of a drug
Format: cell-based
Details: 4-AP final concentration 30 μM, 10-minute period immediately following the addition, spheroids cultured 7 weeks
Text: Spheroids were produced using human iPSC-derived neurons and human iPSC-derived astrocytes, and the drug responsiveness was investigated. First, human iPSC-derived neurons (mixed neurons, manufactured by Elixirgen Scientific, Inc.) and human iPSC-derived astrocytes (Human iPS-derived Astrocytes (mature), manufactured by Xcell Science Inc.) were mixed so as to achieve cell numbers per well that satisfied the cell numbers indicated below in Table 3 for test numbers 3-1 and 3-2. Subsequently, each cell mixture was inoculated onto a spheroid production plate and cultured to produce a spheroid. […]
Subsequently, following culturing for 7 weeks, each of the spheroids was subjected to a calcium transient assay in the presence of a drug. […] In the calcium transient assays, excessive excitation of the neurons was detected as an increase in oscillation frequency or an elevated baseline.
Specifically, first, each spheroid was transferred to a measurement plate, a calcium-sensitive fluorescent dye (EarlyTox Cardiotoxicity Kit, manufactured by Molecular Devices, LLC) was added to the medium, and the mixture was incubated. Subsequently, 4-AP was added to the medium in an amount sufficient to achieve a final concentration of 30 μM, and fluorescence measurements were conducted at 0.6-second intervals for the 10-minute period immediately following the addition. […]

Nc1ccncc1 [4-AP, 4-aminopyridine]
change in the waveform of the oscillations (drug responsiveness) (test number 3-1, cell number ratio (neurons:astrocytes) 1:1): the expected type of change in the waveform of the oscillations was confirmed
change in the waveform of the oscillations (drug responsiveness) (test number 3-2, cell number ratio (neurons:astrocytes) 4:1): the expected type of change in the waveform of the oscillations could not be confirmed
